In ChEMBL document CHEMBL1150976, “The selectivity of protein kinase inhibitors: a further update” (Biochem J, 2007):
Blank lines part the entries; values can stand above or below the compound they belong to.

Assays:
[1] = molecular target: SRSF protein kinase 1 (Homo sapiens) (UniProt Q96SB4); assay: Percentage SRPK1 activity remaining in the presence of 25uM inhibitor
[2] = organism: Rattus norvegicus; assay: Percentage AMPK activity remaining in the presence of 2uM inhibitor
[3] = molecular target: T1, Serine/threonine-protein kinase BRSK2 (Homo sapiens) (UniProt Q8IWQ3); assay: Percentage BRSK2 activity remaining in the presence of 2uM inhibitor
T1 sequence (whole entry): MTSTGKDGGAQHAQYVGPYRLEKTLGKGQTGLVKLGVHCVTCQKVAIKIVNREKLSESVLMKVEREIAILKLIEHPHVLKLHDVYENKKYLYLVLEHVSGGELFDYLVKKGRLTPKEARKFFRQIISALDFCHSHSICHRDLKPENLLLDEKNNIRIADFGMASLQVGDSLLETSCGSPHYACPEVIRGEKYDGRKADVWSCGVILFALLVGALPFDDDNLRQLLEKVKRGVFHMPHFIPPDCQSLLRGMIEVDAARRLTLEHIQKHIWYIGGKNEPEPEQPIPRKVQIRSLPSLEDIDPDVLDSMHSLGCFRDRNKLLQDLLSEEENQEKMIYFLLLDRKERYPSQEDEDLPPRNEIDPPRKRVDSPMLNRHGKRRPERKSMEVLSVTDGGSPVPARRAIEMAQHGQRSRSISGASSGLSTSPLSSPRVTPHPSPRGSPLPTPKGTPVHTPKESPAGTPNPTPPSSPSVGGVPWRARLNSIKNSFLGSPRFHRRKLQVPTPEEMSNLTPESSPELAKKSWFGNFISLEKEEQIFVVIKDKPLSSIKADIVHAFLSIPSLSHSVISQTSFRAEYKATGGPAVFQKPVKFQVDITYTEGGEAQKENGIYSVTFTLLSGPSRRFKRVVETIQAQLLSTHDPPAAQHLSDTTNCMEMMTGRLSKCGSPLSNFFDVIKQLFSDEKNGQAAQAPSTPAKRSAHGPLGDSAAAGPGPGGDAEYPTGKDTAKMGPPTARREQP

[4] = molecular target: Cyclin-dependent kinase 2/cyclin A (Homo sapiens) (UniProt P24941+P20248+P78396); assay: Percentage CDK2-cyclinA activity remaining in the presence of 2uM inhibitor; format: protein-complex assay
[5] = organism: Homo sapiens; assay: Percentage PHK activity remaining in the presence of 2uM inhibitor
[6] = molecular target: cAMP-dependent protein kinase catalytic subunit alpha (Homo sapiens, UniProt P17612); assay: Percentage PKA activity remaining in the presence of 2uM inhibitor
[7] = molecular target: T2, 3-phosphoinositide-dependent protein kinase 1 (Homo sapiens) (UniProt O15530); assay: Percentage PDK1 activity remaining in the presence of 2uM inhibitor
T2 sequence (whole entry): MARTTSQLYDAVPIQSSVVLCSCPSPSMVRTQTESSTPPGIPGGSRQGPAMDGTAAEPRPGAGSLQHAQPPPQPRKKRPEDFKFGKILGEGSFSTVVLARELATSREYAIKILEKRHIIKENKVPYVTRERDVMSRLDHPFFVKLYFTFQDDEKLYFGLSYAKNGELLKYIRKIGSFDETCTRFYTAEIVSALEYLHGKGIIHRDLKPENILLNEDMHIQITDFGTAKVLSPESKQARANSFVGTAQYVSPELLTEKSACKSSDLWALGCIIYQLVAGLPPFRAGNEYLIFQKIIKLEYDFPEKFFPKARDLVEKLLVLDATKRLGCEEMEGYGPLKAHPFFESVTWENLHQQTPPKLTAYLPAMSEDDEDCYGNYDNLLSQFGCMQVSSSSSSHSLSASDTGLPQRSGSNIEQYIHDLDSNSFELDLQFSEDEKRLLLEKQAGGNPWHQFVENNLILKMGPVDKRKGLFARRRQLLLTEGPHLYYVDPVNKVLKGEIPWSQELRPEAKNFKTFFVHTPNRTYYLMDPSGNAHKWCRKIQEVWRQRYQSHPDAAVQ

[8] = molecular target: Serine/threonine-protein kinase PAK 4 (Homo sapiens, UniProt O96013); assay: Percentage PAK4 activity remaining in the presence of 2uM inhibitor
Serine/threonine-protein kinase PAK 4, sequence (O96013 whole entry, looked up): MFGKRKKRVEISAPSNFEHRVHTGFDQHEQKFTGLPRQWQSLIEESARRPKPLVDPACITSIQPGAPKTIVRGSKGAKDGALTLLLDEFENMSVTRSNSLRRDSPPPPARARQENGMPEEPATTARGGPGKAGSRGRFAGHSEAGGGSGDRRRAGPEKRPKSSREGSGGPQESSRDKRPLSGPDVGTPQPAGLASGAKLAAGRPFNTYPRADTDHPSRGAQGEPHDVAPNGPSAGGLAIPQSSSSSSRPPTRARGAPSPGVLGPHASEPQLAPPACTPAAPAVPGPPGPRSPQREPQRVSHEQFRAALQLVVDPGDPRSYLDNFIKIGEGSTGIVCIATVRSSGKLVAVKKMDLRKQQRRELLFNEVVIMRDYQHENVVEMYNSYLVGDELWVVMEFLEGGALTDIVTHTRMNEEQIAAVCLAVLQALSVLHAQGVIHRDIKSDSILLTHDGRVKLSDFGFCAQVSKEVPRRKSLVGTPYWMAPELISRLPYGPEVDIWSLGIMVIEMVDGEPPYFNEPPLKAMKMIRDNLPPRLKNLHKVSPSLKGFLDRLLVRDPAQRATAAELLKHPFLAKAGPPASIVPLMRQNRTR

[9] = molecular target: Ribosomal protein S6 kinase alpha-1 (Homo sapiens) (UniProt Q15418); assay: Percentage RSK1 activity remaining in the presence of 2uM inhibitor; conditions: filed as antagonist
Ribosomal protein S6 kinase alpha-1 (Homo sapiens), sequence (Q15418 whole entry): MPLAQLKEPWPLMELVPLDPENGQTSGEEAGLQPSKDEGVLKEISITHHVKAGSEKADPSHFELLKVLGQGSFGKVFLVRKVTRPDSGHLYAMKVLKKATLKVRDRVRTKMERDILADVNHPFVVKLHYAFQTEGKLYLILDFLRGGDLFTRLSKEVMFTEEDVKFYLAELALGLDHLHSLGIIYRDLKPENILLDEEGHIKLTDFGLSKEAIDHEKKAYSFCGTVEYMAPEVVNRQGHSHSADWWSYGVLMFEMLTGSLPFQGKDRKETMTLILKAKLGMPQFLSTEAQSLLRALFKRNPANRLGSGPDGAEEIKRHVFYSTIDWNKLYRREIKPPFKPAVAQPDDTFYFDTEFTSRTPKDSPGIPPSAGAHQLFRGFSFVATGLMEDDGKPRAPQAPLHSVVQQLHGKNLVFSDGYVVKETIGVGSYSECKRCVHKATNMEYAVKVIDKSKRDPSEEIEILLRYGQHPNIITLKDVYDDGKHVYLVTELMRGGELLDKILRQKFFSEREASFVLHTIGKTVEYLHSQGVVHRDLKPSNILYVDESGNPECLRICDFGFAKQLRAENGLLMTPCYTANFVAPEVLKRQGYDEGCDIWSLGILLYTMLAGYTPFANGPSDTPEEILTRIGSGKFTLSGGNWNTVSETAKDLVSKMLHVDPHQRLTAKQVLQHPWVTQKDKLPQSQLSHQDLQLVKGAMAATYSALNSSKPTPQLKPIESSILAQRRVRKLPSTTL

[10] = molecular target: T3, Dual specificity tyrosine-phosphorylation-regulated kinase 2 (Homo sapiens) (UniProt Q92630); assay: Percentage DYRK2 activity remaining in the presence of 2uM inhibitor
T3 sequence (whole entry): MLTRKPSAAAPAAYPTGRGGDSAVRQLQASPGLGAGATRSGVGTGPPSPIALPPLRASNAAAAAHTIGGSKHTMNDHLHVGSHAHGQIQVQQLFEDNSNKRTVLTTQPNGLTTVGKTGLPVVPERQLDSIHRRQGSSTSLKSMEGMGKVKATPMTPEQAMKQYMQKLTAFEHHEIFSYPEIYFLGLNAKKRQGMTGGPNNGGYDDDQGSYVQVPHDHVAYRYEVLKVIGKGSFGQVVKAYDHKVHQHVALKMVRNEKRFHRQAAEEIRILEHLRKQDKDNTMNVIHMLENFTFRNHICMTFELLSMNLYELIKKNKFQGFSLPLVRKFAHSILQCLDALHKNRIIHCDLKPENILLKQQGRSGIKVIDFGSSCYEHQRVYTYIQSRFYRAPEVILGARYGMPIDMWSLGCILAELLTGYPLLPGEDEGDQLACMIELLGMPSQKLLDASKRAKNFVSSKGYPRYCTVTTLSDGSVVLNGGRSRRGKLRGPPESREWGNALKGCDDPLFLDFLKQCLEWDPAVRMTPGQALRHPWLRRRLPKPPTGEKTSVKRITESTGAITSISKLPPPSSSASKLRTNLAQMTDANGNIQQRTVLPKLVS

[11] = molecular target: Calcium/calmodulin-dependent protein kinase kinase 1 (Homo sapiens) (UniProt Q8N5S9); assay: Percentage CaMKKalpha activity remaining in the presence of 2uM inhibitor
Calcium/calmodulin-dependent protein kinase kinase 1 (Homo sapiens), sequence (Q8N5S9 whole entry, looked up): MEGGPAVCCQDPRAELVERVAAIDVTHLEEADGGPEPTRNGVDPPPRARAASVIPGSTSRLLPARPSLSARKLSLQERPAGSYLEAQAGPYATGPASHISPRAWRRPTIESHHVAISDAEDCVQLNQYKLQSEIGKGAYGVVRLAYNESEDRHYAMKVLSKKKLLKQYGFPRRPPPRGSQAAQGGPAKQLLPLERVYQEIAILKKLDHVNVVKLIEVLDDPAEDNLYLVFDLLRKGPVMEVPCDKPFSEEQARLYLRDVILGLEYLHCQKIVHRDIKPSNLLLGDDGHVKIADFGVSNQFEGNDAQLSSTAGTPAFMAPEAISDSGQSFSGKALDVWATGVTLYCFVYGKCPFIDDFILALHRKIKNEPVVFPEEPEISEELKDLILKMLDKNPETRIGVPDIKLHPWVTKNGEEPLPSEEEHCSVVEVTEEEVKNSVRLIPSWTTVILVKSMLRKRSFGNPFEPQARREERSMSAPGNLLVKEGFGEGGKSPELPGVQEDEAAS

[12] = molecular target: Rho-associated protein kinase 2 (Homo sapiens) (UniProt O75116); assay: Percentage ROCK2 activity remaining in the presence of 2uM inhibitor
Rho-associated protein kinase 2 (Homo sapiens), sequence (O75116 whole entry, looked up): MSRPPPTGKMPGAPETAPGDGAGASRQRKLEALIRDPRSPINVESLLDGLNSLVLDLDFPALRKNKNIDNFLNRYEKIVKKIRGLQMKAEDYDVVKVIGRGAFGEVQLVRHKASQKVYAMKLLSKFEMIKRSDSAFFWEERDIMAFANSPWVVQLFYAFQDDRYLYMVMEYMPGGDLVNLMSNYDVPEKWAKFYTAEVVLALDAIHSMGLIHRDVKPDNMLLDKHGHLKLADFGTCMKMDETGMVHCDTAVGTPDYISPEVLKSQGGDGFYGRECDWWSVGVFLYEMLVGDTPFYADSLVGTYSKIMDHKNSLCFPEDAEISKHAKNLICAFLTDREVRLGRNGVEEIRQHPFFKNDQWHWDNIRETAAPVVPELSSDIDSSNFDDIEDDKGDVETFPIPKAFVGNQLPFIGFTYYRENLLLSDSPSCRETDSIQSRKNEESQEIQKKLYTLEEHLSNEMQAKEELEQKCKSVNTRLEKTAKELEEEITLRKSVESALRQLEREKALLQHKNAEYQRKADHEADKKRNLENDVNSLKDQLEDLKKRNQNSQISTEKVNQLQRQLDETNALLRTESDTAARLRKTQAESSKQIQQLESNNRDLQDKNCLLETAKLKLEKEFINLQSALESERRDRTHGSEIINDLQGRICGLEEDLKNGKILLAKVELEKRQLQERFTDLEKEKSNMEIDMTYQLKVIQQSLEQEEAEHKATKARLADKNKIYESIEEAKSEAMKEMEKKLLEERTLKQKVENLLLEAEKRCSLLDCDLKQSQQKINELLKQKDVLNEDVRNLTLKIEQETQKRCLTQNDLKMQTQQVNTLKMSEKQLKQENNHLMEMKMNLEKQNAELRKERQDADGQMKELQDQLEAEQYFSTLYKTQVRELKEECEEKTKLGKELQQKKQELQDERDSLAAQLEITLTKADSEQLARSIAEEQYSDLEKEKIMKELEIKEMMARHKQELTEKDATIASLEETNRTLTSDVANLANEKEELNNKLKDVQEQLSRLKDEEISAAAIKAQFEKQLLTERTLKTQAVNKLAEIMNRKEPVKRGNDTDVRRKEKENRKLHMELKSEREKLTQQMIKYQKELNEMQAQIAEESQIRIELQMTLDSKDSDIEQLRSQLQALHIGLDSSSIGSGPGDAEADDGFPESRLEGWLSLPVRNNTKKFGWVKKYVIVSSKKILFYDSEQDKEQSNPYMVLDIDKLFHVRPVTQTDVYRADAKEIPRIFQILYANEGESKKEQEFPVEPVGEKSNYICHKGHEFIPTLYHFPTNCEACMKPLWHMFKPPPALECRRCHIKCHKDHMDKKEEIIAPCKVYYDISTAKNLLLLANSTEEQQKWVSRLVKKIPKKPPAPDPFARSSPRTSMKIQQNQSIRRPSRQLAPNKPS

[13] = molecular target: Serine/threonine-protein kinase Nek7 (Homo sapiens) (UniProt Q8TDX7); assay: Percentage NEK7 activity remaining in the presence of 3uM inhibitor
Serine/threonine-protein kinase Nek7 (Homo sapiens), sequence (Q8TDX7 whole entry, looked up): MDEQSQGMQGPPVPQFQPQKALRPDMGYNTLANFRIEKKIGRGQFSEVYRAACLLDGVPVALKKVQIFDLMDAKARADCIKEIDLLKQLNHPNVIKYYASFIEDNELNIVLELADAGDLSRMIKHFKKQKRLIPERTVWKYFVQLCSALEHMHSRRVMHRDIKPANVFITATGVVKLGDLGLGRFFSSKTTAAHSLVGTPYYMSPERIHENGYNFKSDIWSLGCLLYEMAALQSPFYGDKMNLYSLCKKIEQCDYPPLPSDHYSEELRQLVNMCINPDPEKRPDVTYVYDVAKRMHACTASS

[14] = molecular target: Ribosomal protein S6 kinase beta-1 (Homo sapiens, UniProt P23443); assay: Inhibition of S6K1 in the presence of 20uM ATP
Ribosomal protein S6 kinase beta-1, sequence (P23443 whole entry): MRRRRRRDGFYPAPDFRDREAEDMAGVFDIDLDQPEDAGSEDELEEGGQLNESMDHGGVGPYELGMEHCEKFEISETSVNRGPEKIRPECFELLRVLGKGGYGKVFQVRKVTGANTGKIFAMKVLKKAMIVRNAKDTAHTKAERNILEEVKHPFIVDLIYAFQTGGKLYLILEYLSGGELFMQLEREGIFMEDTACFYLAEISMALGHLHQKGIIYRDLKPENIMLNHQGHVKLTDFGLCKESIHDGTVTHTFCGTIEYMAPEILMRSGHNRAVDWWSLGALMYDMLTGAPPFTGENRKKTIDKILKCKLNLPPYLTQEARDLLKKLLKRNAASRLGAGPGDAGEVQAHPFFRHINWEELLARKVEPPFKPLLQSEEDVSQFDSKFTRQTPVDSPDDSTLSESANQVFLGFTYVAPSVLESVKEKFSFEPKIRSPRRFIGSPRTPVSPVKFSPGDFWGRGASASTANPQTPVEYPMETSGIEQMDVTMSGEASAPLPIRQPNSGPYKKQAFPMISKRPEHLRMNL

[15] = molecular target: Serine/threonine-protein kinase pim-2 (Homo sapiens, UniProt Q9P1W9); assay: Percentage PIM2 activity remaining in the presence of 3uM inhibitor
Serine/threonine-protein kinase pim-2, sequence (Q9P1W9 whole entry, looked up): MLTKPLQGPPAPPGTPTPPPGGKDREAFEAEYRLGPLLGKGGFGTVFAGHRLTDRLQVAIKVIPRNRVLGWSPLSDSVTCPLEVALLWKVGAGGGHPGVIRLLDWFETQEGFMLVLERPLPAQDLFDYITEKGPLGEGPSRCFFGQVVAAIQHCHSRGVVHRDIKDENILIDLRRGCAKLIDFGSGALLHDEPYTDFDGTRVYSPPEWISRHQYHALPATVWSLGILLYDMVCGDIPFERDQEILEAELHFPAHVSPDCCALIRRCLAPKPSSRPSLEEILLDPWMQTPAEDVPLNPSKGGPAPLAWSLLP

[16] = molecular target: T2, 3-phosphoinositide-dependent protein kinase 1 (Homo sapiens); assay: Percentage PDK1 activity remaining in the presence of 3uM inhibitor
[17] = molecular target: MAP/microtubule affinity-regulating kinase 3 (Homo sapiens) (UniProt P27448); assay: Percentage MARK3 activity remaining in the presence of 3uM inhibitor
[18] = molecular target: Casein kinase II (Homo sapiens) (UniProt P67870+P68400+P19784); assay: Percentage CK2 activity remaining in the presence of 3uM inhibitor; format: protein-complex assay

SRSF protein kinase 1 (Homo sapiens), sequence (Q96SB4 whole entry): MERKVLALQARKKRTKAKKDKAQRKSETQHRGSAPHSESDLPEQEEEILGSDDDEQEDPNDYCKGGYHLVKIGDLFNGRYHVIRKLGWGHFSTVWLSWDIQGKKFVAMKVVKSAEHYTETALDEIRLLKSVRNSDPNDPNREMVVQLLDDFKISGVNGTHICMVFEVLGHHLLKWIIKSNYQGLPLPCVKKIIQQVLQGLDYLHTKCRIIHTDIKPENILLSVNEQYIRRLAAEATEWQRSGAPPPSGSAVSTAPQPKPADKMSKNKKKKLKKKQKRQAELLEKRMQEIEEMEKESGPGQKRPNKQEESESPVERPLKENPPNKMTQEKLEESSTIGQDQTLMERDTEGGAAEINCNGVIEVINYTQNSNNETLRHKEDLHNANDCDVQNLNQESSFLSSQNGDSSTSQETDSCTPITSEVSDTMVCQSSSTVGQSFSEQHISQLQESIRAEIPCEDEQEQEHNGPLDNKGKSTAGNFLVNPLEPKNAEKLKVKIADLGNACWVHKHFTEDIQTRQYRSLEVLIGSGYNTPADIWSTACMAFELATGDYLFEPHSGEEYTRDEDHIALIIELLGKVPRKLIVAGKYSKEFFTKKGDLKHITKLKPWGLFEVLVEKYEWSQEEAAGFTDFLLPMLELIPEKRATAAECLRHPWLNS

Activity [1]: 86%
SMILES: NCCNS(=O)(=O)c1ccc(Cl)c2ccncc12

Activity [2]: 67% | Activity [3]: 83% | Activity [4]: 52% | Activity [5]: 87% | Activity [6]: 88% | Activity [7]: 92% | Activity [8]: 84% | Activity [9]: 50% | Activity [10]: 92% | Activity [11]: 85% | Activity [12]: 101%
SMILES: Cn1cc(C2=C(c3ccc(Cl)cc3Cl)C(=O)NC2=O)c2ccccc21

Activity [13]: 92% | IC50 [14]: 950 nM (antagonist) | Activity [15]: 85% | Activity [16]: 89% | Activity [17]: 80% | Activity [18]: 92%
SMILES: Cc1ccc(-c2c(C(=O)CF)n(CCCO)c3ncnc(N)c23)cc1
